The results in this text go back to the Kinase Knowledgebase extract (Sharma et al. 2016).

Structures are written as SMILES.

In the test the target is EGFR (UniProt P00533).
Chain of EGFR (P00533 whole entry, looked up): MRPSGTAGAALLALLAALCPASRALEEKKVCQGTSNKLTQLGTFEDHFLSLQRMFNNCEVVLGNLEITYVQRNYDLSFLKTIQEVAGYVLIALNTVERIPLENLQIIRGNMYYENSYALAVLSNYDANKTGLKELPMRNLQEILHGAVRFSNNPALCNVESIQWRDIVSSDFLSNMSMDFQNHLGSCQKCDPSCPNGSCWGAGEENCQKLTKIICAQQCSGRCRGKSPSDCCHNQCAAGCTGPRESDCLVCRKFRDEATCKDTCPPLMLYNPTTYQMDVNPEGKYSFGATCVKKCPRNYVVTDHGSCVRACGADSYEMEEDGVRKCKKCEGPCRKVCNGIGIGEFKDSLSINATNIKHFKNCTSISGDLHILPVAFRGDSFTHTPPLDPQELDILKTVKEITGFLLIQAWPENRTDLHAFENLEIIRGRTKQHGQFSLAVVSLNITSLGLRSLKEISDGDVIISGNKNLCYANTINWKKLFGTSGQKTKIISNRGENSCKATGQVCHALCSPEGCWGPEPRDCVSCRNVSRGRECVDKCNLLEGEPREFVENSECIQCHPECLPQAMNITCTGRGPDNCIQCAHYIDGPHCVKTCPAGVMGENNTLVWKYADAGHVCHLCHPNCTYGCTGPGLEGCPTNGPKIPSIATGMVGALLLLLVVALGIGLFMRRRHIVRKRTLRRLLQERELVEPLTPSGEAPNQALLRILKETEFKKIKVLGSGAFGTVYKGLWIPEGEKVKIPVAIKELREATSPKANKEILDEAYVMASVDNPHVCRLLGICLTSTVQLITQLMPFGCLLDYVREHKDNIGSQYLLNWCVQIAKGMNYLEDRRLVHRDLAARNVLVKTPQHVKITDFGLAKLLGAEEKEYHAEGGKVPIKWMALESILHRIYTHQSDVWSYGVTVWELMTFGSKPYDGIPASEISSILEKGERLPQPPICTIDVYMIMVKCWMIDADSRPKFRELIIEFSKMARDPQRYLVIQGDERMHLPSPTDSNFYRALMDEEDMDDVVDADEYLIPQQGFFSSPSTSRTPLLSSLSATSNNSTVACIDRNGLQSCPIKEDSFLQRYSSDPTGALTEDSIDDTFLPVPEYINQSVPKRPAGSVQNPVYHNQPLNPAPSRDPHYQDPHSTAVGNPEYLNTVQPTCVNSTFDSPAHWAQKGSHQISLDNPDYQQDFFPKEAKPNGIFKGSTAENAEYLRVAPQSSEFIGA
Broadly, the IC50 is the concentration needed to halve the response being measured. A lower IC50 goes with inhibition by little substance. `COc1cc2c(Nc3ccc(Br)c(Cl)c3)ncnc2cc1O[C@H]1CO[C@@H]2CCO[C@H]12` returned an IC50 of under 50 nM.
Turning to `COc1cc2c(Nc3ccc(Cl)cc3)ncnc2cc1O[C@@H]1CO[C@@H]2[C@H]1OC[C@H]2F`, the IC50 is under 50 nM.
The same measure for `COc1cc2c(Nc3cc(Cl)c(Br)cc3F)ncnc2cc1OC[C@H]1C[C@@H]2CN(C)C[C@@H]2C1`: under 50 nM; for `COc1cc2c(Nc3ccc(C(F)(F)F)cc3Br)ncnc2cc1O[C@@H]1CO[C@@H]2[C@H]1OC[C@H]2F`: under 50 nM; for `COc1cc2c(Nc3ccc(Cl)c(Cl)c3)ncnc2cc1OCc1csc(C2CCCCN2)n1` (stereo unspecified): under 50 nM.
In turn, `COc1cc2c(Nc3cc(Cl)c(Cl)cc3F)ncnc2cc1O[C@@H]1CO[C@@H]2[C@H]1OC[C@H]2F` registered an IC50 of under 50 nM.
Take `COc1cc2c(Nc3ccc(N4CCN(C)CC4)cc3)ncnc2cc1O[C@H]1CO[C@@H]2[C@H]1OC[C@@H]2F`: the IC50 is under 50 nM.
`COc1cc2c(Nc3ccc(Cl)c(Cl)c3)ncnc2cc1OCC1CN(C(=O)c2cccc3ccccc23)CCO1` (stereo unspecified) yielded an IC50 of under 50 nM.
Compound `C=CCN1CCOC(COc2cc3ncnc(Nc4ccc(Cl)c(Cl)c4)c3cc2OC)C1` (stereo unspecified) displayed an IC50 of under 50 nM.
As for `CCCCCN1CCOC(COc2cc3ncnc(Nc4ccc(Cl)c(Cl)c4)c3cc2OC)C1` (stereo unspecified), the IC50 was under 50 nM.
For `CCCN1CCOC(COc2cc3ncnc(Nc4ccc(Cl)c(Cl)c4)c3cc2OC)C1` (stereo unspecified), the IC50 was under 50 nM.
The compound `COc1cc2c(Nc3cccc(Br)c3Cl)ncnc2cc1OCC1CN(C)CCO1` (stereo unspecified) had an IC50 of under 50 nM.
Regarding `COc1cc2c(Nc3ccc(Br)c(Cl)c3)ncnc2cc1O[C@H]1CO[C@@H]2[C@H]1OC[C@@H]2N1CCCC1`, the IC50 was under 50 nM.
Consider `COc1cc2c(Nc3ccc(F)c(Cl)c3F)ncnc2cc1OCC1CO[C@@H]2[C@@H](OC)CO[C@H]12` (stereo partly specified), for which the concentration for half-maximal inhibition (IC50) was under 50 nM.
For `COc1cc2c(Nc3ccc(Cl)c(Cl)c3)ncnc2cc1OCC1CN(C(=NC#N)N2CCN(C)CC2)CCO1` (stereo unspecified), the IC50 was under 50 nM.
As for `COc1cc2c(Nc3ccc(F)cc3Cl)ncnc2cc1O[C@@H]1CO[C@@H]2[C@H]1OC[C@H]2F`, the IC50 was under 50 nM.
Compound `COc1cc2c(Nc3ccc(Cl)c(Cl)c3)ncnc2cc1OCc1csc(N(C)C)n1` showed a half-inhibitory concentration (IC50) of under 50 nM.
As to `COc1cc2c(Nc3ccc(Cl)c(Cl)c3)ncnc2cc1OCc1csc(CN2CCCC2)n1`, the IC50 is under 50 nM.
For `COc1cc2c(Nc3ccc(Cl)c(Cl)c3)ncnc2cc1OCc1csc(-c2ccc(Cl)cc2)n1`, the IC50 lay within 50 to 1000 nM.
`COc1cc2c(Nc3ccc(Br)cc3Br)ncnc2cc1OCC1CN(C)CCO1` (stereo unspecified): the IC50 was under 50 nM.
In the case of `COc1cc2c(Nc3ccc(Cl)c(Cl)c3F)ncnc2cc1OC[C@@H]1CN2CCCC[C@@H]2C(=O)N1` it was under 50 nM; in that of `COc1cc2c(Nc3ccc(Cl)c(Cl)c3)ncnc2cc1OCc1csc(C2CCCNC2)n1` (stereo unspecified), under 50 nM.
In the case of `COc1cc2c(Nc3ccc(Cl)c(Cl)c3)ncnc2cc1OCC1CN(C(=O)c2ccoc2)CCO1` (stereo unspecified), the IC50 is under 50 nM.
As for `CCN1CCN(C)CC1COc1cc2ncnc(Nc3ccc(Cl)c(Cl)c3)c2cc1OC` (stereo unspecified), the IC50 was under 50 nM.
`COc1cc2c(Nc3cc(Cl)c(Br)cc3F)ncnc2cc1OC[C@@H]1CN2CCOC[C@H]2CO1`: the IC50 was under 50 nM.
The same measure for `COc1cc2c(Nc3c(F)cc(F)cc3F)ncnc2cc1O[C@@H]1CO[C@@H]2[C@H]1OC[C@H]2F`: under 50 nM; for `COc1cc2c(Nc3ccc(Cl)c(Cl)c3)ncnc2cc1OCCN1CCCCC1`: under 50 nM; for `CCCC(CCC)C(=O)N1CCOC(COc2cc3ncnc(Nc4ccc(Cl)c(Cl)c4)c3cc2OC)C1` (stereo unspecified): under 50 nM.
Consider `COc1cc2c(Nc3cccc(Cl)c3F)ncnc2cc1O[C@H]1CO[C@H]2[C@@H]1OC[C@@H]2OC`, for which the IC50 is under 50 nM.
Compound `COc1cc2c(Nc3ccc(Cl)c(Cl)c3)ncnc2cc1OCC1CN(CCCOC2CCCCO2)CCCO1` (stereo unspecified) yielded an IC50 of under 50 nM.
The same measure for `COc1cc2c(Nc3ccc(Cl)c(Cl)c3)ncnc2cc1OCc1cscn1`: under 50 nM; for `COc1cc2c(Nc3ccc(Cl)c(Cl)c3)ncnc2cc1OCC1CN(C(C)=O)CCCO1` (stereo unspecified): under 50 nM.
For `COc1cc2c(Nc3ccc(Cl)c(Cl)c3F)ncnc2cc1OC[C@@H]1CN2CCCC[C@H]2C(=O)N1`, the IC50 was under 50 nM.
`COc1cc2c(Nc3ccc(F)c(Cl)c3F)ncnc2cc1OC[C@@H]1CN2CCC[C@H]2CO1` gave an IC50 of under 50 nM.
Compound `COc1cc2c(Nc3cccc(F)c3F)ncnc2cc1O[C@@H]1CO[C@@H]2[C@H]1OC[C@H]2F` gave an IC50 of under 50 nM.
Regarding `COc1cc2c(Nc3ccc(Cl)c(Cl)c3)ncnc2cc1OC[C@@H]1CN2CCC[C@H]2CO1`, the IC50 is under 50 nM.
As for `CCCN1CCCOC(COc2cc3ncnc(Nc4ccc(Cl)c(Cl)c4)c3cc2OC)C1` (stereo unspecified), the IC50 lay in the range of 50 to 1000 nM.
Take `COc1cc2c(Nc3ccc(Br)c(Cl)c3)ncnc2cc1O[C@H]1CO[C@H]2[C@@H]1OC[C@@H]2OC(F)F`: the IC50 was under 50 nM.
`COc1cc2c(Nc3ccc(Cl)c(Cl)c3)ncnc2cc1OC[C@H]1CN2CCC[C@@H]2CO1`: the IC50 is under 50 nM.
The compound `C#CCN1CCOC(COc2cc3ncnc(Nc4ccc(Cl)c(Cl)c4)c3cc2OC)C1` (stereo unspecified) yielded an IC50 of under 50 nM.
Take `COc1cc2c(Nc3ccc(Br)c(Cl)c3)ncnc2cc1O[C@H]1CO[C@H]2[C@@H]1OCC21OCCO1`: the IC50 is under 50 nM.
The compound `COc1cc2c(Nc3ccc(Cl)c(Cl)c3)ncnc2cc1OCc1csc(N2CCN(C)CC2)n1` yielded an IC50 of under 50 nM.
The compound `COc1cc2c(Nc3ccc(Cl)c(Cl)c3)ncnc2cc1OCc1nc(N2CCOCC2)no1` returned an IC50 of under 50 nM.
For the compound `COc1cc2c(Nc3ccc(Cl)c(Cl)c3)ncnc2cc1OCC1CN(C(=O)Cc2ccc(Cl)cc2)CCO1` (stereo unspecified), the IC50 was under 50 nM.
In the case of `COc1cc2c(Nc3ccc(Br)c(F)c3F)ncnc2cc1OCC1CN(C)CCO1` (stereo unspecified) it was under 50 nM; in that of `CCC(=O)N1CCOC(COc2cc3ncnc(Nc4ccc(Cl)c(Cl)c4)c3cc2OC)C1` (stereo unspecified), under 50 nM; in that of `COc1cc2c(Nc3ccc(Cl)c(Cl)c3)ncnc2cc1OCC1CN(CCCCCC#N)CCO1` (stereo unspecified), under 50 nM.
For the compound `COc1cc2c(Nc3ccc(Cl)c(Cl)c3)ncnc2cc1OCC1CN(C)CC(C)(C)O1` (stereo unspecified), the IC50 was under 50 nM.
`COc1cc2c(Nc3ccc(Cl)c(Cl)c3F)ncnc2cc1OC[C@H]1C[C@@H]2CN(C)C[C@@H]2C1` gave an IC50 of under 50 nM.
As to `COc1cc2c(Nc3ccc(Cl)c(Cl)c3)ncnc2cc1OCC1CN(C(=O)CCc2ccccc2)CCO1` (stereo unspecified), the IC50 was under 50 nM.
Compound `CCN1CCN(c2noc(COc3cc4ncnc(Nc5ccc(Cl)c(Cl)c5)c4cc3OC)n2)CC1` displayed an IC50 of under 50 nM.
In turn, `COc1cc2c(Nc3ccc(Cl)c(Cl)c3)ncnc2cc1OCC1CN(S(C)(=O)=O)CCCO1` (stereo unspecified) gave an IC50 of under 50 nM.
In the case of `COc1cc2c(Nc3ccc(Br)c(Cl)c3Cl)ncnc2cc1OC[C@@H]1CN2CCC[C@H]2CO1` it was under 50 nM; in that of `COc1cc2c(Nc3ccc(Br)cc3C)ncnc2cc1OCC1CN(C)CCO1` (stereo unspecified), under 50 nM.
In the case of `COc1cc2c(Nc3ccc(Cl)c(Cl)c3)ncnc2cc1OCc1csc(C2CCN(C)CC2)n1` it was under 50 nM.
`COc1cc2c(Nc3ccc(Cl)c(Cl)c3)ncnc2cc1OCCC1CCCN1C` (stereo unspecified): the IC50 is under 50 nM.
The compound `COCCNC(=NC#N)N1CCOC(COc2cc3ncnc(Nc4ccc(Cl)c(Cl)c4)c3cc2OC)C1` (stereo unspecified) yielded an IC50 of under 50 nM.
Compound `COc1cc2c(Nc3ccc(F)c(Cl)c3F)ncnc2cc1OC[C@H]1C[C@@H]2CN(C)C[C@@H]2C1` gave an IC50 of under 50 nM.
Regarding `COc1cc2c(Nc3ccc(Br)c(Cl)c3)ncnc2cc1O[C@H]1CO[C@@H]2[C@H]1OC[C@@H]2NS(C)(=O)=O`, the IC50 was under 50 nM.
In the case of `COc1cc2c(Nc3ccc(Cl)c(Cl)c3)ncnc2cc1OCC1CN(S(=O)(=O)CCCCl)CCO1` (stereo unspecified) it was under 50 nM; in that of `COc1cc2c(Nc3ccc(Br)c(Cl)c3Cl)ncnc2cc1OC[C@H]1CN2CCOC[C@H]2CO1`, under 50 nM.
Turning to `COc1cc2c(Nc3ccc(Br)c(Cl)c3)ncnc2cc1O[C@@H]1CO[C@@H]2[C@H]1OC[C@@H]2O`, the IC50 was under 50 nM.
The compound `CCN1CCc2nc(COc3cc4ncnc(Nc5ccc(Cl)c(Cl)c5)c4cc3OC)sc2C1` displayed an IC50 of under 50 nM.
Compound `CCOc1cc2c(Nc3ccc(Cl)c(Cl)c3)ncnc2cc1OCC1CN(C)CCO1` (stereo unspecified) came in with an IC50 of under 50 nM.
In turn, `COc1cc2c(Nc3cc(Cl)c(Br)cc3F)ncnc2cc1OCC1CN(C)C(C)(C)CO1` (stereo unspecified) returned a concentration for half-maximal inhibition (IC50) of under 50 nM.
In the case of `COc1cc2c(Nc3ccc(Cl)c(Cl)c3)ncnc2cc1OCC1CN(CCO)CCO1` (stereo unspecified), the IC50 was under 50 nM.
The compound `CCN1CCC[C@H]1c1nc(COc2cc3ncnc(Nc4ccc(Cl)c(Cl)c4)c3cc2OC)cs1` registered an IC50 of under 50 nM.
In the case of `COc1cc2c(Nc3ccc(Br)c(Cl)c3F)ncnc2cc1OC[C@@H]1CN2CCC[C@H]2C(=O)N1` it was under 50 nM; in that of `COc1cc2c(Nc3ccc(Cl)c(Cl)c3)ncnc2cc1OCCN1C(=O)c2ccccc2C1=O`, under 50 nM; in that of `COc1cc2c(Nc3ccc(Br)c(Cl)c3F)ncnc2cc1OCC1CN(C)CCO1` (stereo unspecified), under 50 nM.
The same measure for `COc1cc2c(Nc3ccc(Cl)c(Cl)c3)ncnc2cc1OCC1CN(C(=O)CC(=O)O)CCO1` (stereo unspecified): under 50 nM.
In the case of `COc1cc2c(Nc3ccc(Br)c(Cl)c3F)ncnc2cc1OCC1CO[C@@H]2[C@@H](OC)CO[C@H]12` (stereo partly specified), the IC50 is under 50 nM.
Compound `COc1cc2c(Nc3ccc(Cl)c(Cl)c3)ncnc2cc1OCCC1CN(C)CC(C)(C)O1` (stereo unspecified) returned an IC50 of under 50 nM.
Compound `COc1cc2c(Nc3ccc(Cl)c(Cl)c3)ncnc2cc1OCCC1CNC(C)(C)CO1` (stereo unspecified) registered a half-inhibitory concentration (IC50) of under 50 nM.
In the case of `COc1cc2c(Nc3cc(Cl)c(Br)cc3F)ncnc2cc1O[C@H]1CO[C@H]2[C@@H]1OC[C@@H]2OC` it was under 50 nM; in that of `COc1cc2c(Nc3ccc(Br)c(Cl)c3)ncnc2cc1O[C@H]1CO[C@@H]2[C@H]1OC[C@@H]2O`, under 50 nM; in that of `CCN1CCCC(c2nc(COc3cc4ncnc(Nc5ccc(Cl)c(Cl)c5)c4cc3OC)no2)C1` (stereo unspecified), under 50 nM.
In turn, `COc1cc2c(Nc3cc(Cl)c(Cl)cc3F)ncnc2cc1OC[C@@H]1CN2CCOC[C@H]2CO1` returned an IC50 of under 50 nM.
`COc1cc2c(Nc3ccc(Cl)c(Cl)c3)ncnc2cc1OCC1CN(C(C)C)CCO1` (stereo unspecified) had an IC50 of under 50 nM.
`COc1cc2c(Nc3ccc(F)cc3)ncnc2cc1O[C@@H]1CO[C@@H]2[C@H]1OC[C@H]2F`: the half-maximal inhibitory concentration (IC50) was under 50 nM.
`COc1cc2c(Nc3cccc(C(F)(F)F)c3F)ncnc2cc1O[C@@H]1CO[C@@H]2[C@H]1OC[C@H]2F` registered an IC50 of under 50 nM.
